Where two headings read alike, the source gives them in different places.
Key:
[1] = biological target: T1, HCV NS5B RdRp genotype 1b (Hepatitis C virus genotype 1b, UniProt Q9WMX2); test: Standard HCV NS5B RdRp enzyme assay; format: biochemical; conditions: HCV NS5B RdRp genotype 1b, read-out: IC50
T1 construct: The protein was expressed with an 18 amino acid C-terminal truncation to enhance the solubility; made in house; host or cells: E. coli BL21(DE3), pET21a vector
Method in brief: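 Radiometric SPA measuring 3H-UMP incorporation on polyA/biotin-oligo-dT12 (6 nM/180 nM), 0.29 μM total UTP. Enzyme: NS5B 1b lacking last 18 residues, 28 nM final, 30° C for 60 min in 20 mM Hepes pH 7.5, 2.5 mM MgCl2, 2% DMSO. IC50 from seven-point curves.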

HCV replicon cells = test: HCV replicon FRET / luciferase assay (96-well plates); format: cell-based; conditions: Hepatitis C virus, HCV replicon, read-out: EC50
Method in brief: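 Readout was NS3 protease cleavage of an EDANS/DABCYL FRET peptide (20 μM final) in lysed HCV replicon cells, or Renilla luciferase in reporter replicons. Background came from wells with the highest level of control protease inhibitor. EC50 marked the concentration giving 50% signal reduction.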

[2] = untitled table after Table 1b, values without asterisk

T1 sequence (Q9WMX2 2420-2992): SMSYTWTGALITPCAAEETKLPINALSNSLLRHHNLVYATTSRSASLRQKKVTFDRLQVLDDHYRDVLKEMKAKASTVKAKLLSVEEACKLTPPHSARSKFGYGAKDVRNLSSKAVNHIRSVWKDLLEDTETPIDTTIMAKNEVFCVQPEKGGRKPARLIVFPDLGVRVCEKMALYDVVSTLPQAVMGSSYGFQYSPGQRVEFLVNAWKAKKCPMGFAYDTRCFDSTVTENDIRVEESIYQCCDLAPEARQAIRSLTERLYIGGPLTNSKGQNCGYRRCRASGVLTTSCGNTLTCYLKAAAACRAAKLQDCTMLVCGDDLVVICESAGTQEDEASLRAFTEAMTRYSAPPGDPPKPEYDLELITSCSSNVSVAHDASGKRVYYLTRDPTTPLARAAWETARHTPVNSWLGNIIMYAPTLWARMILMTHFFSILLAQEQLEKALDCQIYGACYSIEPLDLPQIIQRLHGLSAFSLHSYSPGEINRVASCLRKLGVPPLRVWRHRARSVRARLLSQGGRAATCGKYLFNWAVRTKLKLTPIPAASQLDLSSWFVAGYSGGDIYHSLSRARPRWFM

Structure (SMILES)	IC50 ([1]; Table 1a)	EC50 (HCV replicon cells; Table 1a)	IC50 ([1]; Table 1b)	EC50 (HCV replicon cells; Table 1b)	further results
CNC(=O)c1c(-c2ccc(F)cc2)oc2ccc(-c3ccc(C(=O)NCCO)cc3)cc12	> 10000 nM	1000 to 10000 nM	–	–	–
CNC(=O)c1c(-c2ccc(F)cc2)oc2ccc(-c3ccc(C(=O)NCCc4ccc(F)cc4)cc3)cc12	> 10000 nM	1000 to 10000 nM	–	–	–
CCOC(=O)[C@H](C)NC(=O)c1cccc(-c2ccc3oc(-c4ccc(F)cc4)c(C(=O)NC)c3c2)c1	< 250 nM	1000 to 10000 nM	–	–	–
CNC(=O)c1c(-c2ccc(F)cc2)oc2ccc(-c3cccc(C(=O)Nc4cccc(OC)c4)c3)cc12	1000 to 10000 nM	1000 to 10000 nM	–	–	–
CNC(=O)c1c(-c2ccc(F)cc2)oc2ccc(-c3cccc(C(=O)NC4(c5ccccn5)CC4)c3F)cc12	–	–	< 250 nM	< 250 nM	–
CNC(=O)c1c(-c2ccc(F)cc2)oc2ccc(-c3cccc(C(N)=O)c3)cc12	1000 to 10000 nM	> 3700 nM	–	–	–
CNC(=O)c1c(-c2ccc(F)cc2)oc2ccc(-c3cc(C(=O)NC4(c5cc(C)on5)CC4)c(OC)cc3C)cc12	–	–	< 250 nM	< 250 nM	–
CNC(=O)c1c(-c2ccc(F)cc2)oc2ccc(-c3cc(C(=O)NC4(c5ccccn5)CC4)c(OC)cc3OC)cc12	–	–	< 250 nM	< 250 nM	–
CNC(=O)c1c(-c2ccc(F)cc2)oc2ccc(-c3cc(C(=O)NC4(c5nnc(-c6ccccn6)[nH]5)CC4)ccc3C)cc12	–	–	< 250 nM	< 250 nM	–
CCCOc1cc(C)c(-c2ccc3oc(-c4ccc(F)cc4)c(C(=O)NC)c3c2)cc1C(=O)NC1(c2ccccn2)CC1	–	–	–	–	IC50 ([1]; Table 1d (class symbols)): 1 to 250 nM; EC50 (HCV replicon cells; 24 h, Table 1d (class symbols)): 1 to 250 nM
CCC(C)NC(=O)c1cccc(-c2ccc3oc(-c4ccc(F)cc4)c(C(=O)NC)c3c2)c1 (stereo not shown)	< 250 nM	< 250 nM	–	–	–
C=CCNC(=O)C(C)(C)NC(=O)c1cccc(-c2ccc3oc(-c4ccc(F)cc4)c(C(=O)NC)c3c2)c1	250 to 1000 nM	250 to 1000 nM	–	–	–
CNC(=O)c1c(-c2ccc(F)cc2)oc2ccc(-c3cccc(C(=O)N[C@@H](CO)C(C)C)c3)cc12 [drawing 613]	–	–	–	–	IC50 ([1]; untitled table after Table 1b): 800 nM; EC50 (HCV replicon cells; [2]): 1250 nM
CNC(=O)c1c(-c2ccc(F)cc2)oc2ccc(-c3cccc(C(=O)N(C)c4ccncc4)c3)cc12	1000 to 10000 nM	> 10000 nM	–	–	–
CNC(=O)c1c(-c2ccc(F)cc2)oc2ccc(-c3cc(OCCn4ccnc4)cc(C(=O)NCC(C)C)c3)cc12	–	–	1000 to 10000 nM	1000 to 10000 nM	–
CNC(=O)c1c(-c2ccc(F)cc2)oc2ccc(-c3cc(C(=O)NC4(c5ccccn5)CC4)ccc3OC(F)(F)F)cc12	–	–	250 to 1000 nM	< 250 nM	–
CCC(O)COc1ccc(C(=O)NCC(C)C)cc1-c1ccc2oc(-c3ccc(F)cc3)c(C(=O)NC)c2c1 (stereo not shown)	–	–	250 to 1000 nM	250 to 1000 nM	–
CNC(=O)c1c(-c2ccc(F)cc2)oc2ccc(-c3cc(C(=O)NC4(c5nnc(-c6ccccc6Cl)[nH]5)CC4)ccc3C)cc12	–	–	< 250 nM	< 250 nM	–
CNC(=O)c1c(-c2ccc(F)cc2)oc2ccc(-c3ccc(CO)cc3)cc12	> 10000 nM	250 to 1000 nM	–	–	–
CNC(=O)c1c(-c2ccc(F)cc2)oc2ccc(-c3ccc(-c4cccnc4C)c(C(=O)NCC(C)C)c3)cc12	–	–	< 250 nM	< 250 nM	–

Structure (SMILES)	IC50 ([1]; Table 1a)	EC50 (HCV replicon cells; Table 1a)	IC50 ([1]; Table 1b)	EC50 (HCV replicon cells; Table 1b)	further results
CNC(=O)c1c(-c2ccc(F)cc2)oc2ccc(-c3cc(C(=O)NC4(c5cn(C)cn5)CC4)ccc3C)cc12	–	–	–	–	IC50 ([1]; Table 1d (class symbols)): < 20 nM; EC50 (HCV replicon cells; 24 h, Table 1d (class symbols)): 1 to 250 nM
CNC(=O)c1c(-c2ccc(F)cc2)oc2ccc(-c3cc(C(=O)NC4(c5nnc(N)o5)CC4)ccc3C)cc12	–	–	< 250 nM	< 250 nM	–
CNC(=O)c1c(-c2ccc(F)cc2)oc2ccc(-c3cc(C(=O)NC4(c5ncccn5)CC4)ccc3C)cc12 [drawing 570]	–	–	< 250 nM	< 250 nM	–
CNC(=O)c1c(-c2ccc(F)cc2)oc2ccc(-c3ccc(C(=O)OC(C)(C)C)cc3)cc12	> 10000 nM	> 10000 nM	–	–	–
CN1CN(C)c2c(-c3cccc(C(=O)NC(C)(C)c4ccccc4)c3)ccc3oc(-c4ccc(F)cc4)c(c23)C1=O	> 10000 nM	> 10000 nM	–	–	–
CNC(=O)c1c(-c2ccc(F)cc2)oc2cc(NS(C)(=O)=O)c(-c3cc(C(=O)NCC(C)C)ccc3OC)cc12	–	–	< 250 nM	< 250 nM	–
CNC(=O)c1c(-c2ccc(F)cc2)oc2ccc(-c3cccc(C(=O)Nc4n[nH]cc4C(N)=O)c3)cc12	1000 to 10000 nM	> 10000 nM	–	–	–
CNC(=O)c1c(-c2ccc(F)cc2)oc2ccc(-c3ccc(OC4CCCCO4)cc3)cc12 (stereo not shown)	> 10000 nM	1000 to 10000 nM	–	–	–
CNC(=O)c1c(-c2ccc(F)cc2)oc2cc([N+](=O)[O-])c(-c3cccc(C(=O)NCC(C)C)c3)cc12	–	–	< 250 nM	< 250 nM	–
CCOCCNC(=O)c1cccc(-c2ccc3oc(-c4ccc(F)cc4)c(C(=O)NC)c3c2)c1	< 250 nM	250 to 1000 nM	–	–	–
CNC(=O)c1c(-c2ccc(F)cc2)oc2ccc(-c3cc(C(=O)NC4(c5ccccn5)CC4)c(OCc4cnccn4)cc3C)cc12 [drawing 711]	–	–	–	–	IC50 ([1]; second table titled Table 1d (numbers)): 2.1 nM; EC50 (HCV replicon cells; 24 h, second table titled Table 1d (numbers)): 1 nM
CNC(=O)c1c(-c2ccc(F)cc2)oc2ccc(-c3cccc(C(=O)NC(C)(C)C(F)(F)F)c3)cc12	< 250 nM	< 250 nM	–	–	–
CNC(=O)c1c(-c2ccc(F)cc2)oc2ccc(-c3cccc(C(=O)N[C@H](C)c4ccc(F)cc4)c3)cc12	< 250 nM	< 250 nM	–	–	–
CNC(=O)c1c(-c2ccc(F)cc2)oc2ccc(-c3cccc(C(=O)NCCC(C)(C)C)c3)cc12	< 250 nM	< 250 nM	–	–	–
CNC(=O)c1ccc(-c2ccc3oc(-c4ccc(F)cc4)c(C(=O)NC)c3c2)cc1	> 10000 nM	> 3700 nM	–	–	–
CNC(=O)c1ccc(-c2ccc(-c3ccc4oc(-c5ccc(F)cc5)c(C(=O)NC)c4c3)cc2C(=O)NCC(C)C)cn1	–	–	> 10000 nM	> 10000 nM	–
CNC(=O)c1c(-c2ccc(F)cc2)oc2ccc(-c3ccc(OC)nc3)cc12	> 10000 nM	> 1230 nM	–	–	–
CNC(=O)c1c(-c2ccc(F)cc2)oc2cc(N(CCO)S(C)(=O)=O)c(-c3cccc(C(=O)NC(C)(C)c4nc(C)no4)c3)cc12	–	–	< 250 nM	< 250 nM	–
CNC(=O)c1c(-c2ccc(F)cc2)oc2ccc(-c3cccc(C(=O)N(C)C(C)(C)C)c3)cc12	< 250 nM	< 250 nM	–	–	–
CNC(=O)c1c(-c2ccc(F)cc2)oc2ccc(-c3cc(C(=O)NCC(C)C)ccc3OCC(N)=O)cc12	–	–	< 250 nM	< 250 nM	–

Structure (SMILES)	IC50 ([1]; Table 1a)	EC50 (HCV replicon cells; Table 1a)	IC50 ([1]; Table 1b)	EC50 (HCV replicon cells; Table 1b)	further results
CNC(=O)c1c(-c2ccc(F)cc2)oc2ccc(-c3cc(C(=O)NC4(c5cccnc5)CC4)ccc3C)cc12	–	–	< 20 nM	< 250 nM	–
CNC(=O)c1c(-c2ccc(F)cc2)oc2ccc(-c3cccc(C(=O)N[C@H]4CCC[C@H]4c4ccc(Cl)cc4)c3)cc12 [drawing 612]	–	–	–	–	IC50 ([1]; untitled table after Table 1b): > 12500 nM; EC50 (HCV replicon cells; [2]): 1130 nM
CNC(=O)c1c(-c2ccc(F)cc2)oc2ccc(-c3ccc(C(=O)NCCNC(C)=O)cc3)cc12	> 10000 nM	> 10000 nM	–	–	–
CNC(=O)c1c(-c2ccc(F)cc2)oc2ccc(-c3cccc(C(=O)NCC4CCOCC4)c3)cc12	< 250 nM	250 to 1000 nM	–	–	–
CNC(=O)c1c(-c2ccc(F)cc2)oc2ccc(-c3cccc(C(=O)NCC(N)=O)c3)cc12	> 10000 nM	> 10000 nM	–	–	–
CNC(=O)c1c(-c2ccc(F)cc2)oc2ccc(-c3cc(C(=O)NC4(c5coc(C)n5)CC4)c(OC)cc3C)cc12	–	–	< 250 nM	< 250 nM	–
CNC(=O)c1c(-c2ccc(F)cc2)oc2ccc(-c3cn[nH]c3)cc12	> 10000 nM	250 to 1000 nM	–	–	–
CNC(=O)c1c(-c2ccc(F)cc2)oc2ccc(-c3cc(C(=O)NC4(c5nnc(-c6ccc(Cl)cc6)[nH]5)CC4)ccc3C)cc12	–	–	250 to 1000 nM	< 250 nM	–
CNC(=O)c1c(-c2ccc(F)cc2)oc2ccc(-c3cc(C(=O)NC4(c5ccccn5)CC4)ccc3C(F)(F)F)cc12	–	–	< 250 nM	< 250 nM	–
CNC(=O)c1c(-c2ccc(F)cc2)oc2ccc(-c3cc(C(=O)NCC(C)C)ccc3OCCN3CCOCC3)cc12	–	–	< 250 nM	< 250 nM	–
CNC(=O)c1c(-c2ccc(F)cc2)oc2ccc(-c3cccc(C(=O)Nc4ccc(O)nc4)c3)cc12	1000 to 10000 nM	1000 to 10000 nM	–	–	–
CNC(=O)c1c(-c2ccc(F)cc2)oc2ccc(-c3cccc(C(=O)NC4CCCCCC4)c3)cc12	< 250 nM	< 250 nM	–	–	–
CNC(=O)c1c(-c2ccc(F)cc2)oc2ccc(Oc3ccc(/C=C(\NC(=O)c4ccccc4)C(=O)OC)cc3)cc12	1000 to 10000 nM	1000 to 10000 nM	–	–	–
CNC(=O)c1c(-c2ccc(F)cc2)oc2ccc(-c3cccc(C(=O)N[C@@H]4CCc5ccc(O)cc54)c3)cc12	> 1390 nM	250 to 1000 nM	–	–	–
CNC(=O)c1c(-c2ccc(F)cc2)oc2ccc(-c3cccc(C(=O)OC)c3)cc12	> 10000 nM	> 3700 nM	–	–	–
CCC(C)(C)NC(=O)c1cccc(-c2ccc3oc(-c4ccc(F)cc4)c(C(=O)NC)c3c2)c1	< 250 nM	< 250 nM	–	–	–
CNC(=O)c1c(-c2ccc(F)cc2)oc2ccc(-c3cc(O)cc(C(=O)NCC(C)C)c3)cc12	–	–	< 250 nM	250 to 1000 nM	–
CNC(=O)c1c(-c2ccc(F)cc2)oc2ccc(-c3ccc(C(=O)N4CC[C@H](NC(C)=O)C4)cc3)cc12	1000 to 10000 nM	1000 to 10000 nM	–	–	–
CNC(=O)c1c(-c2ccc(F)cc2)oc2ccc(-c3cc(C(=O)NC(C)(C)C)ccc3C)cc12	–	–	< 250 nM	< 250 nM	–

From US8309558B2, “Compounds for the treatment of hepatitis C” (Bristol-Myers Squibb Company, priority 2008, dated 2012)
